Experimental findings from patent publication US9522928B2, “Mannosylated compounds useful for the prevention and the treatment of infectious diseases” (UNIVERSITE DE STRASBOURG, priority 2011, dated 2016) are described below.

The target in test [1] is T1, DC-SIGN expressed at the surface of DCs (Homo sapiens, UniProt Q9NNX6).
T1 construct: endogenous in cells; host or cells: human monocyte-derived dendritic cells (GM-CSF/IL-4 differentiated)
T1 sequence (Q9NNX6 1-404): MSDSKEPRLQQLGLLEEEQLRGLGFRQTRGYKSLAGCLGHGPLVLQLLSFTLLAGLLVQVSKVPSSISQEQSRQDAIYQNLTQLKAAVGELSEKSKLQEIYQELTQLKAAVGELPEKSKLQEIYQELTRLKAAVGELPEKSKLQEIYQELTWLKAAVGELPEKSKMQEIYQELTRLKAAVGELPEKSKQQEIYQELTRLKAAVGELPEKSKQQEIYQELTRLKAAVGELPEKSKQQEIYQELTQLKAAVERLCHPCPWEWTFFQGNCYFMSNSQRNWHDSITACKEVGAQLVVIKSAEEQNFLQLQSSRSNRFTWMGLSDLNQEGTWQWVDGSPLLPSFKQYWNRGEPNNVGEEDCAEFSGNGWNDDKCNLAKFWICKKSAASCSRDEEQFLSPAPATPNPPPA
In words: Competition with gp120-FITC binding to DCs, flow cytometry. It counts as cell-based. The settings on record: 100 μM, 30 min pretreatment, competition not complete. As for the experimental part:
Human DCs (1×10^5 in 100 μl) were aliquoted in a 96-well microtiter plate in RPMI 1640 medium without FBS. To assess the binding of HIV-1 glycoprotein 120, FITC conjugated recombinant gp120 HIV-1 IIIB (ImmunoDiagnostics Inc, Woburn, Mass. U.S.A.) was added to the cells (final concentration of 5 μg/ml) and incubated for 45 min at 37° C. For competition assays, cells were pretreated with either mannan (100 μg/ml final) or TriManC24 (100 μM) for 30 min at 37° C., followed by incubation with gp120-FITC for 45 min at 37° C. After washing with HBSS buffer (Lonza), expression of fluorescence intensity was analyzed on a FACSCalibur flow cytometer with the CellQuest Pro software
The ability of TriManC24 to inhibit the interactions of HIV-1 gp120 with DC-SIGN […] at the surface of DCs. Immature DCs were prepared by differentiation of human monocytes, in the presence of a cocktail of cytokines. The expression levels of DC-SIGN were controlled by flow cytometry. […] When cells were incubated with fluorescently-labeled gp120, a strong binding of gp120 to DCs was observed as compared with a lower interaction with monocytes (FIG. 1B).
A competition assays were performed by pre-incubating DCs with either TriManC24 or mannan, followed by the addition of gp120-FITC (FIG. 1C).
(In general: In flow cytometry, cells or beads pass a laser one at a time.)

Another test deals with Dengue virus 2 (DV2). In words: Dengue virus (DV2) cis-infection of human DCs. The class given is cell-based. As for the experimental part: Compounds of the invention (TriManC24, TriManinsatC24) were serially diluted in water. Human DCs (2.5×10^5 in 200 μl) in 48-well plates were pre-treated with different concentrations of compounds or culture medium alone, in RPMI 1640 medium […] for 30 min at 37° C. They were exposed to DV-2 at a multiplicity of infection of 1.0, for 2 h at 37° C. Cells were washed and cultured in complete RPMI medium (condition 1) or in complete medium containing the tested compounds (TriManC24, TriMannsatC24) (condition 2). After 48 h, supernatants were titered and cells were subjected to intracellular detection of viral antigens. DCs were fixed with 4% (v/v) paraformaldehyde and permeabilized with 0.1% (v/v) Triton X-100 for 3 min at room temperature. After washing, they were labeled with mouse anti-DV type 2 monoclonal antibody (3H5.1, Millipore) and stained with APC -conjugated rat anti-mouse IgG1. Fluorescence intensity of the cells was analyzed by flow cytometry (FACSCalibur, Becton Dickinson), using the Cell Quest Pro software.
There are four different dengue serotypes (1-4), and we have used DV type 2 (DV2) to further investigate the ability of the compounds of the invention (TriManC24 and TriManinsatC24) to inhibit the infection of human DCs. These cells were pre-treated with different concentrations of compounds or culture medium alone, for 30 min at 37° C. They were then exposed to DV2 for 2 hours at 37° C. Cells were washed to remove excess virions and compounds, and further cultured either in the absence (condition 1) or in the presence (condition 2) of the tested compounds. After 48 hours, cells were subjected to intracellular detection of viral antigens, and supernatants were titrated (not shown). […] FIG. 3A and FIG. 3B show the percentage of infected DCs when incubated with distinct concentrations of TriManinsatC24 in condition 1 and in condition 2, respectively. The histograms clearly show the protecting effects of TriManinsatC24, in particular in condition 2 wherein TriManinsatC24 at 10, 50 and 100 μM enabled the percentage of infected DCs to be reduced down to 40%, 20% and 2% respectively.

Take `CCCCCCCCCCCCCCCCCCCCCCCCC(=O)NC(COCCC(=O)NCCOCCOCCOCCOC1OC(CO)C(O)C(O)C1O)(COCCC(=O)NCCOCCOCCOCCOC1OC(CO)C(O)C(O)C1O)COCCC(=O)NCCOCCOCCOCCOC1OC(CO)C(O)C(O)C1O` (stereo not drawn) [TriManC24]: the “inhibition of gp120 binding to DCs (in words)” value in test [1] is given as “able to inhibit the binding of gp120-FITC to DCs”; in test [1] (listed as TrimanC24), “competed for the binding of soluble gp120 glycoprotein to DC-SIGN”. The “inhibition of Dengue virus infection of DCs (in words)” value in the test with Dengue virus 2 (DV2) was “able to inhibit the direct infection of DCs by Dengue virus”.
